The results in this text go back to publication PMC6273687, “Design, Synthesis and Biological Evaluation of Novel Primaquine-Cinnamic Acid Conjugates of the Amide and Acylsemicarbazide Type” (Molecules, 2016).

The subject of test [1] is SW 620 colon carcinoma cell line. In words: Growth inhibition of tumor cell lines in vitro (MTT / cell counting). The class given is cell-based. To be noted: Homo sapiens, 72 h; SW 620, 3 days. The protocol: (§1) The experiments were carried out on a murine lymphocytic leukemia cell line (L1210) and five human tumor cell lines: CEM, HeLa, NCI-H460, SW 620 and MCF-7. The cells were cultured as monolayers and maintained in Dulbecco′s modified Eagle medium (DMEM) supplemented with 10% fetal bovine serum (FBS), 2 mM L-glutamine, 100 U/mL penicillin and 100 μg/mL streptomycin in a humidified atmosphere with 5% CO2 at 37 °C.
(§2) The growth inhibition activity of the compounds was assessed as described previously. The cell lines were inoculated onto a series of standard 96-well microtiter plates on day 0, at 1.5 × 10^4 cells/mL (SW 620, H460) to 2.5 × 10^4 cells/mL (MCF-7, CEM and L1210), depending on the growth of the tumor cell line. Test agents were then added in ten-fold dilutions (10^−8 to 10^−4 M) and the cell cultures were then incubated for 3–4 days with 5% CO2 at 37 °C. Working dilutions of the compounds were freshly prepared on the day of testing.
(§3) After 3 (MCF-7, SW 620, NCI-H460) or 4 days (CEM, L1210), the cell growth rate was evaluated first light microscopically, then by viable cell counting and/or by performing the MTT assay, which detects dehydrogenase activity in live, not dead, cells. The absorbance (A) was measured on a microplate reader at 570 nm. The absorbance is directly proportional to the number of living, metabolically active cells. […] If however, all of the tested concentrations produce PGs exceeding the respective reference level of effect (e.g., PG value of 50), then the highest tested concentration is assigned as the default value, which is preceded by a “>” sign. Minimum two individual experiments were carried out and each test point was performed in quadruplicate.

The test system of test [2] is HeLa cervical carcinoma cell line. The test is described as above. The class given is cell-based. The settings on record: Homo sapiens. The protocol:
as §1, §2, §3

The test system of test [3] is L1210 murine lymphocytic leukemia cell line. The description is as above. Type of test: cell-based. The settings on record: Mus musculus, 96 h; L1210, 4 days. The protocol: as §1, §2, §3
The subject of test [4] is CEM acute lymphoblastic leukemia cell line. The description is as above. The class given is cell-based. The settings on record: Homo sapiens, 96 h, 4 days. The procedure:
as §1, §2, §3

A short description of test [5]: Interaction with the stable radical DPPH (reducing ability). The protocol: To a solution of DPPH in absolute ethanol the appropriate volume of the compounds (50 or 100 µM final concentrations) dissolved in DMSO was added. The absorbance was recorded at 517 nm after 20 and 60 min at room temperature. The experiments were repeated at least in triplicate and the standard deviation of absorbance was less than 10% of the mean. NDGA was used under the same experimental conditions as a reference compound.
On the technique in general: The DPPH test is a chemical assay of radical scavenging.

In test [6] the target is T1, soybean lipoxygenase (LOX) (Glycine max, UniProt P08170).
T1 construct: purchased Sigma-Aldrich
T1 sequence (P08170 1-839): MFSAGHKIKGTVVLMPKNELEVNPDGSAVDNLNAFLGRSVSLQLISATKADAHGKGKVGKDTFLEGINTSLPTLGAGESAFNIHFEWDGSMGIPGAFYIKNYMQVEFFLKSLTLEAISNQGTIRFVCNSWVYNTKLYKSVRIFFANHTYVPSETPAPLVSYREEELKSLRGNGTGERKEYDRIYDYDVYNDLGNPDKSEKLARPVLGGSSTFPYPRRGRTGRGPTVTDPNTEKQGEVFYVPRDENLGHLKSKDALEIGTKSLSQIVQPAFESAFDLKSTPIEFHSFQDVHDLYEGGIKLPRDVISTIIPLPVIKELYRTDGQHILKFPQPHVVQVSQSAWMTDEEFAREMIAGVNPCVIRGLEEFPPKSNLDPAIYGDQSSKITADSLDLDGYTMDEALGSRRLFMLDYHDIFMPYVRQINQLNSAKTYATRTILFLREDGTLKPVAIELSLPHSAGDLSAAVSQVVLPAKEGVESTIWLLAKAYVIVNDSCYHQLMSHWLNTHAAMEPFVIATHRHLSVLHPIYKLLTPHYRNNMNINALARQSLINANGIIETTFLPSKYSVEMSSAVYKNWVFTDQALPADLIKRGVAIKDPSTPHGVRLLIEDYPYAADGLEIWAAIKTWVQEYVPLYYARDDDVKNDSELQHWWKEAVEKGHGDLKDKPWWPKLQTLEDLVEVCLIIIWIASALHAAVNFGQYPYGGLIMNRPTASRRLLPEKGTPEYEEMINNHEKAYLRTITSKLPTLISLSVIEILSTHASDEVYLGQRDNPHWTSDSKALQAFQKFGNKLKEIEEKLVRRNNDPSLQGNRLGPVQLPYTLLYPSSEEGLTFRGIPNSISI
Briefly: LOX inhibition study in vitro. Type of test: biochemical. To be noted: for inhibition at 100 µM: 1 × 10^−4 M; for IC50: values in parentheses in Table 3. The procedure:
LOX inhibitory assay in vitro was accomplished as described previously. The test compounds (stock solutions 10 mM in DMSO) were incubated at room temperature with sodium linoleate (c = 0.1 mM) and 0.2 mL of LOX enzyme solution (1/9 × 10^−4 m/V in saline). The conversion of sodium linoleate to 13-hydroperoxylinoleic acid was measured at 234 nm and compared with the reference inhibitor. Several concentrations were used for the IC50 determination.

For test [7], the system named is MCF-7 breast carcinoma cell line. In words: Growth inhibition of tumor cell lines in vitro (MTT / cell counting). The class given is cell-based, human. The settings on record: Homo sapiens, MCF7, 72 h; MCF-7, 3 days. The procedure: as §1, §2, §3
Test [8] concerns NCI-H460 lung carcinoma cell line. Described as above. The class given is cell-based, human. To be noted: Homo sapiens, 72 h; NCI-H460, 3 days. The protocol: as §1, §2, §3
Test [9] is described as follows: Inhibition of linoleic acid peroxidation (AAPH-induced). The settings on record: 5 × 10^−5 M. The procedure: For initiating the lipid peroxidation free radical AAPH was used. Final solution in the UV cuvette consisted of 10 μL linoleate sodium solution (c = 16 mM), 0.93 mL phosphate buffer (c = 0.05 M), pH 7.4, thermostated at 37 °C. 50 μL AAPH solution (c = 40 mM) and 10 μL of the tested compounds were added. The experiment was performed at 37 °C under air. The oxidation of linoleic acid sodium salt was monitored at 234 nm. The assays were repeated at least in triplicate and the standard deviation of absorbance was less than 10% of the mean. Trolox was used under the same experimental conditions as a reference compound.

The test system of test [10] is human coronavirus (229E). In words: microbe, parasite or virus in culture. Type of test: cell-based. The settings on record: read-out: EC50 (concentration required to reduce virus-induced cytopathogenicity by 50%), HEL cell cultures. For orientation: Cytopathic effects are the visible damage that an infection or toxin causes in cultured cells.

In general, IC50 refers to the point on the concentration scale where inhibition reaches its midpoint. By inhibition is commonly meant the percentage by which the read-out fell short of the control. A high value points to strong suppression. For the compound `COc1cc(NC(C)CCCNC(=O)/C=C/c2cccc(C(F)(F)F)c2)c2ncccc2c1` (stereo not drawn) [3i], the IC50 in test [1] is 64 ± 41 µM; in test [2], 112 ± 11 µM; in test [3] it was 68 ± 2 µM; in [4] it was 41 ± 15 µM; in [7], 11 ± 2 µM; in test [8], greater than 100 µM. The “DPPH-reducing ability RA (%)” value in test [5] (1 × 10^−4 M, 60 min) came out at 8%; in [5] (5 × 10^−5 M, 60 min) it was 13%. For the same compound, in test [6], 100 µM produced 19% inhibition. Further, in test [9], the “LP Inhibition (%)” value came out at 32%.

`COc1cc(NC(C)CCCNC(=O)/C=C/c2ccc(C(F)(F)F)cc2)c2ncccc2c1` (stereo not drawn) [3j, (E)-N-(4-(6-Methoxyquinolin-8-ylamino)pentyl)-3-(4-(trifluoromethyl)phenyl)acrylamide]: the IC50 in test [1] was greater than 100 µM; in test [2] it was 25 ± 6 µM; in test [3] it was 50 ± 18 µM; in test [4] it was 14 ± 1 µM; in test [6] it was 50 µM; in [7] it was 3.9 ± 0.6 µM. The compound also came in with a 50% inhibitory concentration (IC50) in [8] greater than 100 µM. The “DPPH-reducing ability RA (%)” value in test [5] (1 × 10^−4 M, 20 min) is listed as 38%; in [5] (1 × 10^−4 M, 60 min) it was 40%. For the same compound, in test [9], the “LP Inhibition (%)” value was found to be 77%.

Turning to `COc1cc(NC(C)CCCNC(=O)/C=C/c2cc(C(F)(F)F)cc(C(F)(F)F)c2)c2ncccc2c1` (stereo not drawn) [3k, (E)-3-(3,5-Bis(trifluoromethyl)phenyl)-N-[4-(6-methoxyquinolin-8-ylamino)pentyl]acrylamide], the IC50 is greater than 100 µM in [1]; 18 ± 1 µM in test [2]; 92 ± 24 µM in test [3]; 68 ± 29 µM in test [4]; 2.6 ± 0.5 µM in test [7]; greater than 100 µM in test [8]. In test [5] (1 × 10^−4 M, 60 min), the “DPPH-reducing ability RA (%)” value amounted to 50%. 100 µM produced 43% inhibition in test [6]. Besides, in [9], the “LP Inhibition (%)” value is 65%.

Regarding `COc1cc(NC(C)CCCNC(=O)NNC(=O)/C=C/c2ccccc2)c2ncccc2c1` (stereo not drawn) [7a, (E)-1-Cinnamoyl-4-(4-(6-methoxyquinolin-8-ylamino)pentyl)semicarbazide], the IC50 in test [1] was greater than 100 µM; in test [2] it was 12 ± 2 µM; in test [3] it was 7 ± 3.1 µM; in test [4], 3 ± 0.5 µM; in test [7] it was 2.5 ± 1.9 µM; in [8] it was greater than 100 µM. For the same compound, the “DPPH-reducing ability RA (%)” value in [5] (1 × 10^−4 M, 20 min) turned out to be 39%; in test [5] (1 × 10^−4 M, 60 min) it was 100%; in [5] (5 × 10^−5 M, 20 min) it was 49%; in [5] (5 × 10^−5 M, 60 min), 100%. In test [6], this compound registered an inhibition at 100 µM of 36%. Moreover, the “LP Inhibition (%)” value in test [9] is 83%.

For `COc1cc(NC(C)CCCNC(=O)NNC(=O)/C(C)=C/c2ccccc2)c2ncccc2c1` (stereo not drawn) [7b, (E)-4-(4-(6-Methoxyquinolin-8-ylamino)pentyl)-1-(2-methyl-3-phenylacryloyl)semicarbazide], the IC50 in [1] is 9.5 ± 0.9 µM; in [2], 47 ± 6 µM; in [3], 53 ± 5 µM; in [4], 25 ± 14 µM; in test [6], 100 µM; in [7], 16 ± 9 µM. The 50% inhibitory concentration (IC50) in test [8] turned out to be 50 ± 4 µM. Also, the “DPPH-reducing ability RA (%)” value in [5] (1 × 10^−4 M, 20 min) stood at 84%; in test [5] (1 × 10^−4 M, 60 min), 99%; in [5] (5 × 10^−5 M, 20 min) it was 42%; in test [5] (5 × 10^−5 M, 60 min), 100%. Besides, the EC50 in [10] is 15 µM. In addition, in [9], the “LP Inhibition (%)” value worked out at 62%.

For the compound `COc1cc(NC(C)CCCNC(=O)NNC(=O)/C=C/c2ccc(OC)c(OC)c2)c2ncccc2c1` (stereo not drawn) [7d, (E)-1-(3-(3,4-Dimethoxyphenyl)acryloyl)-4-(4-(6-methoxyquinolin-8-ylamino)pentyl)semicarbazide], the IC50 in [1] was found to be 25 ± 9 µM; in test [2], 92 ± 30 µM; in test [3] it was 40 ± 14 µM; in test [4], 93 ± 46 µM; in [6], 10 µM; in [7], 1.9 ± 1.8 µM. It took 32 ± 21 µM to reach half-maximal inhibition in test [8] (IC50). Besides, the “DPPH-reducing ability RA (%)” value in test [5] (1 × 10^−4 M, 20 min) is 100%; in [5] (1 × 10^−4 M, 60 min), 100%; in [5] (5 × 10^−5 M, 20 min), 55%; in test [5] (5 × 10^−5 M, 60 min), 100%. For the same compound, the “LP Inhibition (%)” value in [9] worked out at 88%.

For the compound `COc1cc(NC(C)CCCNC(=O)NNC(=O)/C=C/c2cc(OC)c(OC)c(OC)c2)c2ncccc2c1` (stereo not drawn) [7e, (E)-4-(4-(6-Methoxyquinolin-8-ylamino)pentyl)-1-(3-(3,4,5-trimethoxyphenyl)acryloyl)semicarbazide], the 50% inhibitory concentration (IC50) in [1] was 48 ± 17 µM; in test [2], 70 ± 2 µM; in test [3] it was 57 ± 5 µM; in test [4] it was 54 ± 12 µM; in test [6], 43 µM; in [7], 1.4 ± 0.1 µM. The compound further came in with a half-maximal inhibitory concentration (IC50) in test [8] of 63 ± 2 µM. Moreover, the “DPPH-reducing ability RA (%)” value turned out to be 46% in test [5] (1 × 10^−4 M, 20 min); 100% in test [5] (1 × 10^−4 M, 60 min); 60% in test [5] (5 × 10^−5 M, 20 min); 100% in test [5] (5 × 10^−5 M, 60 min). The “LP Inhibition (%)” value in test [9] was 86%.

As for `COc1cc(NC(C)CCCNC(=O)NNC(=O)/C=C/c2ccccc2F)c2ncccc2c1` (stereo not drawn) [7h, (E)-1-(3-(2-Fluorophenyl)acryloyl)-4-(4-(6-methoxyquinolin-8-ylamino)pentyl)semicarbazide], the IC50 was 12 ± 4 µM in test [1]; 46 ± 2 µM in test [2]; 40 ± 4 µM in test [3]; 15 ± 2 µM in test [4]; 41 µM in test [6]; 5.9 ± 2 µM in [7]. Further, half-maximal inhibition in test [8] (IC50) required 12 ± 0.2 µM. The “DPPH-reducing ability RA (%)” value in test [5] (1 × 10^−4 M, 20 min) is 52%; in test [5] (1 × 10^−4 M, 60 min), 100%; in [5] (5 × 10^−5 M, 20 min), 61%; in [5] (5 × 10^−5 M, 60 min) it was 100%. In addition, the “LP Inhibition (%)” value in test [9] is 67%.
